Results as given in patent US20250064859A1, “HPSC-DERIVED ARTICULAR CHONDROCYTE COMPOSITIONS, SYSTEMS AND METHODS OF USE THEREOF” (The Children's Medical Center Corporation, priority 2022, published 2025).

How the values were obtained:
Format in all cases: cell-based, human
paraxial mesoderm = assay: Chondrogenic potential of day 14 paraxial mesoderm induced with (420i) or without (420) the Wnt inhibitor in stage 2; settings: 420 mesoderm treated with the Wnt inhibitor from day 3-5 of differentiation/stage 2
Procedure: Five experiments were conducted, and qPCR tests were performed on the cells after 4 weeks and the data was pooled and analyzed. In a second test, 420 and 420i paraxial mesoderm cells were plated in micromass cultures supplemented with TGFβ and qPCR was performed after 12 weeks of micromass expansion. In a third test, 420 and 420i paraxial mesoderm cells were plated in serum-free monolayer culture with no additional factors and qPCR was performed following 4 weeks of culture. A second group of 420 and 420i paraxial mesoderm cells were plated in serum-free monolayer culture supplemented with either FGF alone or with a mixture of FGF, TGFβ and Forskolin (FSK). qPCR was performed after 4 weeks in culture.

[1] = tested on: micromass cultures (hPSC-derived articular cartilage tissues); assay: BMP4 challenge of TGFβ3-treated micromass cultures; COL10A1 mRNA normalized to TBP
Excerpt: FIGS. 17A-17C depict copy number COL10A1 mRNA normalized to TBP in micromass cultures at indicated timepoints and treatment regimens. FIG. 17A depicts copy number COL10A1 mRNA in micromass cultures treated with TGFB3 from 2-24 weeks, and in TGFB3-treated micromass cultures that were switched to BMP4-supplemented media after 2 weeks (BMP4 @2w), 2 weeks, and 4, 6, 8, 10, 12 weeks in which gene expression was quantified after 2, 6, 12, or 24 weeks after switching media to BMP4-supplementation. FIG. 17B and FIG. 17C depict copy number PRG4 (FIG. 17B) and COL10A1 (FIG. 17C) in micromass cultures after 2, 6, 12, and 24 weeks (w).
FIGS. 17A-C depict copy number COL10A1 mRNA normalized to TBP in micromass cultures at indicated timepoints and treatment regimens. […] Data represents average of 4 biological replicates, error bars indicate standard error.

[2] = tested on: monolayer-derived chondrocytes; assay: Micromasses seeded with monolayer-derived chondrocytes and treated with TGFβ or BMP; phenotype and qPCR; settings: for cartilage phenotype induced in micromass culture: monolayer-derived chondrocytes plated in micromass
Excerpt: FIGS. 9A-9C are bar graphs showing relative mRNA copy number for COL10A1 (growth plate cartilage marker) (FIG. 9A), PRG4 (articular cartilage marker) (FIG. 9B) and COL2A1 (general cartilage marker) (FIG. 9C) of monolayer-derived chondrocytes (derived with either FGF-alone or the combination of TGFβ+FGF+FSK treatment) that were subsequently cultured in micromass for 6 weeks in the presence of TGFβ or BMP4 to generate articular or growth plate-like chondrocytes and cartilage tissues. FIGS. 9D-9F are bar graphs showing mRNA copy number for COL10A1 (FIG. 9D), PRG4 (FIG. 9E) and COL2A1 (FIG. 9F) of monolayer-derived chondrocytes (derived with either FGF-alone or the combination of TGFβ+FGF+FSK treatment) that were subsequently cultured in micromass (uM) for 12 weeks in the presence of TGFβ or BMP4 to generate articular or growth plate-like chondrocytes and cartilage tissues.
Micromasses were seeded with monolayer-derived chondrocytes and were treated with TGFβ to induce articular cartilage (i.e., to reproduce “superficial zone-like” chondrocytes that express PRG4) or with BMP to induce growth plate cartilage (GPC; i.e., to produce hypertrophic chondrocytes that express COL10A1). Monolayer-derived chondrocytes were generated with the following compositions: FGF alone or TGF+FGF+FSK30.

Compound	chondrogenic potential of paraxial mesoderm (paraxial mesoderm)	COL10A1 mRNA response to BMP4 challenge ([1]; micromass treated with TGFβ for 8 weeks or less prior to BMP4)	COL10A1 mRNA response to BMP4 challenge ([1]; micromass treated with TGFβ for at least 10 weeks prior to BMP4)	COL10A1 (hypertrophic chondrocyte/GPC gene) expression ([2]; micromass, regardless of monolayer treatment prior to micromass culture)	cartilage phenotype induced in micromass culture [2]	PRG4 (articular cartilage gene) expression ([2]; micromass)
Cc1ccc2nc(NC(=O)CSc3nc4c(c(=O)n3-c3ccccc3)SCC4)sc2c1 [IWP2, N-(6-Methyl-2-benzothiazolyl)-2-[(3,4,6,7-tetrahydro-4-oxo-3-phenylthieno[3,2-d]pyrimidin-2-yl)thio]-acetamide]	increased chondrogenic potential	–	–	–	–	–
BMP4: Bone Morphogenetic Protein 4, used to induce growth plate cartilage	–	upregulate COL10A1 mRNA	do not upregulate COL10A1 mRNA	higher	induces growth plate cartilage phenotype	–
TGFB: transforming growth factor β3, TGFβ agonist used to induce articular cartilage	–	–	–	–	induces articular-like cartilage phenotype	higher
